# According to patent US20050009124A1, “Assays for detection of phosphoinositide kinase and phosphatase activity” (Echelon Biosciences Incorporated, priority 2001, published 2005):
# Like-named read-outs stand apart in the source and are kept apart here.
# How the values were obtained:
# Type in all cases: binding
# SMQ-Grp1 = target: T1, SMQ-Grp1 (Homo sapiens, UniProt O43739); assay: Competitive dequenching fluorogenic assay with SMQ-Grp1
# T1 construct: small molecular quencher (Dabcyl, QSY 7 or QSY 9); made in house
# T1 sequence (O43739 1-400): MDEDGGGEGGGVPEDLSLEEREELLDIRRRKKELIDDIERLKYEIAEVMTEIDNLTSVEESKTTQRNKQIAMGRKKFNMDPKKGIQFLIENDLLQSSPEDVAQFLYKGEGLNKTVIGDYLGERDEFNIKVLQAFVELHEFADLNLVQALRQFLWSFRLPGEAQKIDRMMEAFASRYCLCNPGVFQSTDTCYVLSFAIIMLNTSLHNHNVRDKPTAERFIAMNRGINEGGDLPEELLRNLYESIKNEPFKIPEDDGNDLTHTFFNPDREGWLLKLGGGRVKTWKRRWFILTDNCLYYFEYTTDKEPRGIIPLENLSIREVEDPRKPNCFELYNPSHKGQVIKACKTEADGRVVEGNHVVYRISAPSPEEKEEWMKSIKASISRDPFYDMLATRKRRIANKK
# Method: The fluorogenic assays were set up in a black 384-well plate. The combination of 100 nM, 10 nM and 1 nM of SMQ-Grp1 conjugate was incubated with 100 nM, 50 nM and 25 nM BODIPY®-FL-labeled PI(3,4,5)P3. The total assay volume was […] in a PBS buffer at a pH of 7.5. The assay mixture was incubated in the dark for one hour at 25° C. The plate was then transferred to an Alpha Fusion plate reader and read with a 485/520 nm filter. […] For example, if BODIPY®-FL-PI(3,4,5)P3 is fixed at 25 nM, increasing the amount of Dabcyl-Grp1 conjugate (from 1 nM to 100 nM) caused decreasing amounts of fluorescence (FIG. 24). Similar fluorescence quenching profiles were shown for QSY 7-Grp1 and QSY 9-Grp1.
# The quenching effects of BODIPY®-FL-PI(3,4,5)P3 by SMQ-Grp1 were specific. diC8 PI(3,4,5)P3 as a competitor antagonized the fluorescence quenching effect of BODIPY®-FL-PI(3,4,5)P3 by SMQ-Grp1 in a dose-response manner. diC8 PI(3,4,5)P3 was used at varying concentrations to compete with BODIPY®-FL-PI(3,4,5)P3 for binding to the SMQ-Grp1 conjugate. […] In each bar graph in FIG. 25, from the right to the left, the bars show the fluorescence reading of PBS as the background, the diC8 PI(3,4,5)P3 only, the SMQ-Grp1 conjugate only, BODIPY®-FL-PI(3,4,5)P3 only, Grp1-SMQ plus BODIPY®-FL-PI(3,4,5)P3, Grp1-SMQ plus BODIPY®-FL-PI(3,4,5)P3 with 10 pmol of diC8 PI(3,4,5)P3 as the competitor, Grp1-SMQ plus BODIPY®-FL-PI(3,4,5)P3 with 100 pmol of diC8 PI(3,4,5)P3 as the competitor, Grp1-SMQ plus BODIPY®-FL-PI(3,4,5)P3 with 1000 pmol of diC8 PI(3,4,5)P3 as the competitor, and Grp1-SMQ plus BODIPY®-FL-PI(3,4,5)P3 with 10000 pmol of diC8 PI(3,4,5)P3 as competitor. […]
# Fluorogenic assays were also used to compare competition of diC8 PI(3,4,5)P3 to PI(4,5)P2 and PI(3)P. With increasing amounts of PI(3,4,5)P3 the signal begins to increase, indicating competition, whereas as PI(4,5)P2 and PI(3)P show little change, indicating less competition. […] The production (or presence) of PI(3,4,5)P3 in this assay system corresponds to the elevation of the fluorescence signal.
# GST-TAPP1 = GST-TAPP1 (Homo sapiens, UniProt Q9HB21); assay: Competitive FP assay, displacement of BODIPY-TMR-PI(3,4)P2 tracer from GST-TAPP1
# GST-TAPP1, sequence (Q9HB21 whole entry): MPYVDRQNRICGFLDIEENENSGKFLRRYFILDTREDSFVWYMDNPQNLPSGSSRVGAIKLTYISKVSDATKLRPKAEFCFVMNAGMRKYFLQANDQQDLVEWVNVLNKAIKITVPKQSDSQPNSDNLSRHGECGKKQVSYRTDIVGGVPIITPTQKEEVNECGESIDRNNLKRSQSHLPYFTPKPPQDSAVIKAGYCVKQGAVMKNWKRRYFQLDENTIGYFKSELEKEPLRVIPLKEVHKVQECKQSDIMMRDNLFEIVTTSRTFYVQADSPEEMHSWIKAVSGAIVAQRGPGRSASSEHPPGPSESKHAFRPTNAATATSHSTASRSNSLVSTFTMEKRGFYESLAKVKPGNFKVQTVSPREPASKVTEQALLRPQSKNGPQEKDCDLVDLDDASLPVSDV
# Method: (§1) In order to use these reagents in a competitive FP assay, unlabeled phosphoinositide products of an enzymatic reaction must be able to successfully compete with the labeled tracer for interaction with the binding proteins. In addition, the level of cross-reactivity of binding proteins with the phosphoinositides used as enzyme substrates should be minimal. To examine the suitability of these phosphoinositide binding proteins for this application, competition assays were performed using optimal amounts of lipid binding proteins and fluorescent tracers, mixed with increasing amounts of diC8-phosphoinositide competitors.
# Similar competition assays were performed to examine the selectivity and sensitivity of PI(3,4)P2 detection by GST-TAPP1 (FIG. 10). In these assays, the concentrations of GST-TAPP1 and the fluorescently labeled phosphoinositide were held constant as the concentration of unlabeled lipid competitor was increased. […] In implementing these assays, the initial amount of PI(3,4,5)P3 substrate should be kept low enough to minimize competition.
# GST-Grp1 = target: T2, GST-Grp1 (Homo sapiens, UniProt O43739); assay: Competition fluorogenic assay with GST-Grp1/GS-QSY 7 complex; details: probe 10 nM, GST-Grp1 0.5 μM, GS-QSY 7 2.5 μM, increasing competitor
# T2 sequence (O43739 1-400): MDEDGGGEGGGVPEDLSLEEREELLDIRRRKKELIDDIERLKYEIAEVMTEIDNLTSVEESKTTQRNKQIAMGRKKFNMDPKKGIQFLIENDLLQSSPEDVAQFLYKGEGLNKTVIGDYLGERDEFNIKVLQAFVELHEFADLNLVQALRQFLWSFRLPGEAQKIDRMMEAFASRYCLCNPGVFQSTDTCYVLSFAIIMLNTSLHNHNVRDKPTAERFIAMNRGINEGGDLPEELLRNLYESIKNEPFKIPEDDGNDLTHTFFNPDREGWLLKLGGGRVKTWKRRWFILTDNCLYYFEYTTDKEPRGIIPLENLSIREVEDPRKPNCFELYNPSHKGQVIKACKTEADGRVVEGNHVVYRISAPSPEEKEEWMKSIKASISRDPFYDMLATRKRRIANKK
# Method: The fluorogenic assays using a glutathione quencher conjugate (e.g. GS-QSY 7) were set up in a black 384-well plate. A combination of the assay components described in detail below, including GST-Grp1, BODIPY®-FL-PI(3,4,5)P3, GS-QSY7, and phosphoinositide competitors, were incubated in the dark for 1 hour. The total reaction volume was either 25 or 50 μl in PBS (pH 7.4). The plate was then transferred to an Alpha Fusion plate reader and read with a 485/520 nm filter.
# This fluorogenic assay was also specific.
# GST-GRP1-PH = target: T3, GST-GRP1-PH (Homo sapiens, UniProt O43739); assay: Competitive FP assay, displacement of fluorescent tracer from GST-GRP1-PH; details: displacement of BODIPY®-TMR-I(1,3,4,5)P4 tracer
# T3 construct: The PH domain of GRP1 (general receptor for phosphoinositides) was used as a detector for PI(3,4,5)P3
# T3 sequence (O43739 264-381 limits assumed): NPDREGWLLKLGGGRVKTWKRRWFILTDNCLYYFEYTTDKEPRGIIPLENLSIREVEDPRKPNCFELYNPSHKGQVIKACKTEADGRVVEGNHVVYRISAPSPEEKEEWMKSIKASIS
# Method: as §1
# The sensitivity of this approach for detecting conversion of PI(4,5)P2 to PI(3,4,5)P3 was evaluated using GST-GRP1-PH protein and FAM and BODIPY®-TMR labeled tracers. Competition assays in which both diC8-PI(3,4,5)P3 and diC8-PI(4,5)P2 were added at increasing concentrations were performed.
# [1] = Fluorogenic assay, quenching of BODIPY-FL-PI(3,4,5)P3 by SMQ-Grp1 conjugates
# Text: The chemical modification of LRPs, e.g. Grp1, a PI(3,4,5)P3 binder, with small molecular quenchers (SMQ) has been thoroughly studied in this invention. Three SMQs, Dabcyl-SE (4-((4-(dimethylamino)phenyl)azo)benzoic acid, succinimidyl ester), QSY 7-SE (9-[2-[[4-[[(2,5-dioxo-1-pyrrolidinyl)oxy]carbonyl]-1-piperidinyl]sulfonyl]phenyl]-3,6-bis(methylphenylamino)-, chloride) and QSY 9-SE (QSY® 9 carboxylic acid, succinimidyl ester, C43H39ClN4O13S3), with diverse structures, spectral properties, hydrophobicity and solubility properties, were coupled to Grp1. Specifically, SMQ-modified Grp1 still retains its binding activity and quenches the fluorescence of BODIPY®-FL labeled PI(3,4,5)P3. With a fixed amount of BODIPY®-FL-PI(3,4,5)P3 in solution, increasing the amount of SMQ-Grp1 caused decreasing fluorescence of the PI(3,4,5)P3 fluorescent probes. At a ratio of 2:1 (QSY 7-Grp1:BODIPY®-FL-PI(3,4,5)P3), QSY 7-Grp1 quenched up to 70% of the fluorescence intensity of BODIPY®-FL PI(3,4,5)P3.
# The fluorogenic assays were set up in a black 384-well plate. […] The plate was then transferred to an Alpha Fusion plate reader and read with a 485/520 nm filter. […] For example, if BODIPY®-FL-PI(3,4,5)P3 is fixed at 25 nM, increasing the amount of Dabcyl-Grp1 conjugate (from 1 nM to 100 nM) caused decreasing amounts of fluorescence (FIG. 24). […]
molecule,measurement,setting,value
PI(3)P,change of fluorescence signal (competition),"SMQ-Grp1; increasing amounts of competitor, compared with diC8 PI(3,4,5)P3",little change
"CCCCCCCC(=O)OC[C@H](COP(=O)(O)O[C@H]1[C@H](O)[C@@H](O)[C@H](OP(=O)(O)O)[C@@H](OP(=O)(O)O)[C@H]1O)OC(=O)CCCCCCC [diC8-PI(3,4)P2]",IC50,GST-TAPP1; read-out: IC50,165 nM
"CCCCCCCCCCCCCCCC(=O)OC[C@H](COP(=O)(O)O[C@@H]1[C@H](O)[C@H](O)[C@@H](OP(=O)(O)O)[C@H](OP(=O)(O)O)[C@H]1O)OC(=O)CCCCCCCCCCCCCCC [diC16 PI(4,5)P2]","effect on fluorescence of BODIPY®-FL PI(3,4,5)P3 (competition)",GST-Grp1,only marginally increased the fluorescence at higher concentrations
"CCCCCCCCCCCCCCCC(=O)OC[C@H](COP(=O)(O)OC1[C@H](O)[C@H](OP(=O)(O)O)C(OP(=O)(O)O)[C@H](OP(=O)(O)O)[C@H]1O)OC(=O)CCCCCCCCCCCCCCC (stereo partly drawn) [DiC16 PI(3,4,5)P3]","effect on fluorescence of BODIPY®-FL PI(3,4,5)P3 (competition)",GST-Grp1,restored the fluorescence
"CCCCCCCC(=O)OC[C@H](COP(=O)(O)OC1[C@H](O)[C@H](OP(=O)(O)O)C(OP(=O)(O)O)[C@H](OP(=O)(O)O)[C@H]1O)OC(=O)CCCCCCC (stereo partly drawn) [diC8-PI(3,4,5)P3]",IC50,GST-GRP1-PH,218 nM
same,IC50,"GST-TAPP1; predicted, read-out: predicted IC50",1510 nM
same,"fluorescence restored, of the original","SMQ-Grp1; 10000 pmol competitor, Dabcyl-Grp1 100 nM, probe 50 nM",up to 70%
"QSY 7-Grp1: Grp1, a PI(3,4,5)P3 binder, coupled to small molecular quencher QSY 7-SE (conjugate, UniProt O43739 1-400, looked up, QSY 7 quencher) Cytohesin-3: MDEDGGGEGGGVPEDLSLEEREELLDIRRRKKELIDDIERLKYEIAEVMTEIDNLTSVEESKTTQRNKQIAMGRKKFNMDPKKGIQFLIENDLLQSSPEDVAQFLYKGEGLNKTVIGDYLGERDEFNIKVLQAFVELHEFADLNLVQALRQFLWSFRLPGEAQKIDRMMEAFASRYCLCNPGVFQSTDTCYVLSFAIIMLNTSLHNHNVRDKPTAERFIAMNRGINEGGDLPEELLRNLYESIKNEPFKIPEDDGNDLTHTFFNPDREGWLLKLGGGRVKTWKRRWFILTDNCLYYFEYTTDKEPRGIIPLENLSIREVEDPRKPNCFELYNPSHKGQVIKACKTEADGRVVEGNHVVYRISAPSPEEKEEWMKSIKASISRDPFYDMLATRKRRIANKK","quenching of fluorescence intensity of BODIPY®-FL PI(3,4,5)P3","[1]; ratio 2:1 (QSY 7-Grp1:BODIPY®-FL-PI(3,4,5)P3)",up to 70%
"Dabcyl-Grp1 conjugate: Grp1, a PI(3,4,5)P3 binder, coupled to small molecular quencher Dabcyl-SE (conjugate, UniProt O43739 1-400, looked up, Dabcyl quencher) Cytohesin-3: MDEDGGGEGGGVPEDLSLEEREELLDIRRRKKELIDDIERLKYEIAEVMTEIDNLTSVEESKTTQRNKQIAMGRKKFNMDPKKGIQFLIENDLLQSSPEDVAQFLYKGEGLNKTVIGDYLGERDEFNIKVLQAFVELHEFADLNLVQALRQFLWSFRLPGEAQKIDRMMEAFASRYCLCNPGVFQSTDTCYVLSFAIIMLNTSLHNHNVRDKPTAERFIAMNRGINEGGDLPEELLRNLYESIKNEPFKIPEDDGNDLTHTFFNPDREGWLLKLGGGRVKTWKRRWFILTDNCLYYFEYTTDKEPRGIIPLENLSIREVEDPRKPNCFELYNPSHKGQVIKACKTEADGRVVEGNHVVYRISAPSPEEKEEWMKSIKASISRDPFYDMLATRKRRIANKK","quenching of fluorescence of BODIPY®-FL-PI(3,4,5)P3","[1]; SMQ-Grp1 100 nM, BODIPY®-FL-PI(3,4,5)P3 50 nM",~70%
